Test results as given in patent publication US6407113B1, “Medicament for treatment of diastolic dysfunction” (Mitsubishi Chemical Corporation, priority 1998, dated 2002).

Tests used:
[1] = target: T1, sarcoplasmic reticulum Ca^2+-ATPase (Canis lupus familiaris, UniProt O46674); assay: Sarcoplasmic reticulum Ca2+-ATPase activity of myocardium collected after in vivo drug administration (Pi colorimetry); format: biochemical, dog
T1 construct: sarcoplasmic reticulum from both post-ischemic and non-ischemic regions of the left ventricle of dogs; from tissue; host or cells: dog left ventricle (LAD occluded 30 min, reperfused 30 min), sarcoplasmic reticulum fraction
T1 sequence (O46674 whole entry, the tested form may be a part): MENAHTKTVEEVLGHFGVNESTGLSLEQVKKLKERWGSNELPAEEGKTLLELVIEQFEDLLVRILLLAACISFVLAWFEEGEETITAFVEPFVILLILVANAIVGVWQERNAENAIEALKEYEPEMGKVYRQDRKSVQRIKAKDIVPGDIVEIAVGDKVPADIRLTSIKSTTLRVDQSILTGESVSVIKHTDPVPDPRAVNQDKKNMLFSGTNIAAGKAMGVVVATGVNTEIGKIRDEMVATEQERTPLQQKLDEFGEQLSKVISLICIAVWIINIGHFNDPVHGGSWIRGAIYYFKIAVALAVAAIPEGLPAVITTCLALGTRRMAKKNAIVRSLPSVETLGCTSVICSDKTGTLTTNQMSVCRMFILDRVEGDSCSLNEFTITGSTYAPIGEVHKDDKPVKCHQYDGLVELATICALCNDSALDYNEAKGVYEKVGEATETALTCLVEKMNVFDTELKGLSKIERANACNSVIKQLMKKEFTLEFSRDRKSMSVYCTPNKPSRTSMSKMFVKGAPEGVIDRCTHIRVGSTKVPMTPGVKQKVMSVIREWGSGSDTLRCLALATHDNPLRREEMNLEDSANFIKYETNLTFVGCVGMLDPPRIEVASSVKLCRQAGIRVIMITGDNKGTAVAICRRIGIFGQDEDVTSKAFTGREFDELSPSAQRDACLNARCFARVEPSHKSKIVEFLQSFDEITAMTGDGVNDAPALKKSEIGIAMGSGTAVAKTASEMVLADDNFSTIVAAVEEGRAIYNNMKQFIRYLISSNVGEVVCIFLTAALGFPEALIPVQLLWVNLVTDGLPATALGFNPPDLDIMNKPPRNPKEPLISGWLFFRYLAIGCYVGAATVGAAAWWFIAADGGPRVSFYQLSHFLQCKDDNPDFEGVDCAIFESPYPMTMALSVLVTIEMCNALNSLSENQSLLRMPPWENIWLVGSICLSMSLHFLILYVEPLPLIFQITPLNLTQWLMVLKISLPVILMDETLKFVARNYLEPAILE
Method: After hemodynamic stability is established following operation, the dissected portion of LAD was occluded for 30 minutes and then reperfused for 1 hour. At the same time, the cardiac function (%SS) in the above-described ischemic/reperfused region was continuously monitored through-out the protocol.
The animals were randomly grouped into two groups, one consisting of animals to be administered with the medicament of the present invention (Drug administration group; N=6) and the other of control group (N-6). The dogs of drug administration group were intravenously administered with the medicament of the present invention (3 μg/kg) into the right femoral vein 5 minutes before reperfusion, followed by continuous infusion at 30 μg/kg/hr. Dogs of the control group were administered with the equal amount of saline.
After 1-hour reperfusion, their hearts were isolated and the myocardium in post-ischemic region and non-ischemic region of the left ventricles were collected from which the fractions having sarcoplasmic reticulum Ca^2+-ATPase activity were extracted to be subjected to protein assay (Bradford method) and stored at −80° C. The defrozen fractions were used to determine Ca^2+-ATPase activity. The activity was determined by measuring the amount of the generated inorganic phosphate (Pi) by colorimetry using phosphor/molybdic acid and malachite green (μmoles Pi/mg protein/min).
Next, results obtained from the Ca^2+-ATPase activity assay of the sarcoplasmic reticulum collected from each region are shown in FIGS. 2 and 3.

[2] = tested on: ischemic/reperfused myocardium; assay: Regional cardiac function (%SS) in brief-ischemic/reperfused myocardium in dogs; format: in vivo; conditions: dog; 30 min LAD occlusion, 1 h reperfusion; 3 μg/kg i.v. 5 min before reperfusion then 30 μg/kg/hr infusion
Method: The chest of mongrel dogs (adult, male and female) was opened under anesthesia with pentobarbital (30 mg/kg, i.v.) and a portion of the left coronary anterior descending (LAD) was dissected. A catheter-tip-pressure transducer (Millar; MPC-500) was inserted from the left carotidartery into the left ventricle to determine the left ventricular pressure and its first differential value (dP/dt). A pair of crystal probes were mounted in the LAD region to determine changes in regional segment length. Diastolic segment length (EDL; threshold point of dP/dt) and systolic segment length (ESL; dP/dt(−) max point) were determined from the waveform of dP/dt, and the regional segment shortening (%SS) in the ischemic/reperfused myocardium was calculated as follows: %SS=(EDL−ESL)/EDL×100. After hemodynamic stability is established following operation, the dissected portion of LAD was occluded for 30 minutes and then reperfused for 1 hour. At the same time, the cardiac function (%SS) in the above-described ischemic/reperfused region was continuously monitored through-out the protocol. The animals were randomly grouped into two groups, one consisting of animals to be administered with the medicament of the present invention (Drug administration group; N=6) and the other of control group (N-6). […]

[3] = target: T1, sarcoplasmic reticulum Ca^2+-ATPase; assay: Direct effect in vitro on sarcoplasmic reticulum Ca2+-ATPase activity; format: biochemical, dog; conditions: preincubation 37° C. 5 min; for sarcoplasmic reticulum Ca^2+-ATPase activity, post-ischemic region, in vitro: control 0.045±0.005; for sarcoplasmic reticulum Ca^2+-ATPase activity, non-ischemic region, in vitro: control 0.057±0.003
Method: The Ca^2+-ATPase activity of the sarcoplasmic reticulum from both post-ischemic and non-ischemic regions of the left ventricle of dogs, in which LAD was occluded for 30 minutes followed by reperfusion for 30 minutes, was measured in the same manner as in Example 1. The direct effect of the medicament of the present invention on the sarcoplasmic reticulum was examined in vitro by determining the amount of inorganic phophorous generated during the reaction for 15 minutes, which was triggered by adding ATP to the reaction solution, with the preincubated medicament of the present invention at 37° C. for 5 minutes.
For each of post-ischemic region and non-ischemic region (N=6), three groups were tested; control group which was preincubated with H2O, groups with low level dosage (10^−7 M of the medicament of the present invention was administered), and group with high level dosage (10^−6 M of the medicament of the present invention was administered)

Compound	inhibition of the ATPase activity of the sarcoplasmic reticulum fraction ([1]; 1 μM)	regional cardiac function (%SS) in post-reperfusion region compared to control group [2]	sarcoplasmic reticulum Ca^2+-ATPase activity, post-ischemic region ([1]; Ca^2+ 10 μM, dog dosed in vivo 3 μg/kg i.v. + 30 μg/kg/hr, control group 0.070±0.004) [μmol Pi/mg min]	sarcoplasmic reticulum Ca^2+-ATPase activity, non-ischemic region ([1]; Ca^2+ 10 μM, dog dosed in vivo 3 μg/kg i.v. + 30 μg/kg/hr, control group 0.089±0.009) [μmol Pi/mg min]	sarcoplasmic reticulum Ca^2+-ATPase activity, post-ischemic region, in vitro ([3]; 10^−6 M (high concentration)) [μmol Pi/mg min]	sarcoplasmic reticulum Ca^2+-ATPase activity, non-ischemic region, in vitro ([3]; 10^−6 M (high level dosage)) [μmol Pi/mg min]	sarcoplasmic reticulum Ca^2+-ATPase activity, post-ischemic region, in vitro ([3]; 10^−7 M (low concentration)) [μmol Pi/mg min]	sarcoplasmic reticulum Ca^2+-ATPase activity, non-ischemic region, in vitro ([3]; 10^−7 M (low level dosage)) [μmol Pi/mg min]
C/C=C(/C)C(=O)O[C@H]1C(C)=C2[C@H]([C@@H]1OC(=O)CCCCCCC)[C@@](C)(OC(C)=O)C[C@H](OC(=O)CCC)[C@@]1(O)[C@H]2OC(=O)[C@@]1(C)O [Thapsigargin, reference compound]	completely inhibited	–	–	–	–	–	–	–
Cc1ccc(N2CCNCC2)c(S(=O)(=O)O)c1 [medicament of the present invention, 2-(1-piperazinyl)-5-methylbenzenesulfonic acid derivative monohydrate]	–	significantly improved	0.090±0.008	0.088±0.006	0.062±0.005	0.060±0.003	0.057±0.003	0.062±0.002
